Patent US6953786B2, “Compositions comprising plant-derived polyphenolic compounds and inhibitors of reactive oxygen species and methods of using thereof” (The Regents of the University of California, priority 2002, dated 2005)

Tested on: Mia PACA-2
Test: TUNEL apoptosis assay in primary tumors and normal tissues
Format: in vivo, nude mouse
Protocol: In order to determine the mechanism of the suppressive effects of quercetin on the growth of the pancreatic cancer, apoptosis in the primary tumors using the TUNEL assay was conducted. See Gukovskaya AS, et al. (1997) Clin Invest 100:1853-1862; Gukovskaya AS, et al. (1996) Gastroenterology 110:875-884; and Sandoval D, et al. (1996) Gastroenterology 111:1081-1091, which are herein incorporated by reference. Specifically, 3 μm tissue section were deparaffinized and rehydrated through a graded series of ethanol and redistilled water. Tissue sections were refixed in 4% paraformaldehyde for 15 minutes at room temperature and then incubated with proteinase K (20 μg/ml in 10 mM Tirs/HCL, pH 7.4-8.0) for 15 minutes at 37° C. DNA breaks were then labeled with terminal deoxytransferase (TdT) and biotinylated deoxyUTP. Staining without TdT enzyme or the biotinylated substrate were used as negative controls. For positive controls, slides were treated with DNase I. Measurements were made by light microscpy observations and values calculated as the percentage of cells positively stained as a percentage of the total number of cells.

Q: How did the Percentage of apoptosis (TUNEL in primary tumors of quercetin-treated nude mice, means ± SE, n=8) turn out when `O=c1c(O)c(-c2ccc(O)c(O)c2)oc2cc(O)cc(O)c12` [quercetin] was run?
A: 7.10 ± 1.00 %

Q: And the “apoptosis in normal tissues detected by the TUNEL assay” value (quercetin-treated nude mice, data not shown)?
A: no increase in apoptosis
